Values quoted from earlier work, collected in patent publication US20230143212A1 (Navinta, LLC, priority 2021, published 2023).
“And” between values parts separate entries of the source, which are not always exact repeats. Identical values can stand only once. Like-named read-outs stand apart in the source and are kept apart here.

Key:
[1] = ethyl alcohol, DMSO, propylene glycol, polyethylene glycol, glycerol, dimethylformamide
[2] = for solubility in propylene glycol/water: 25° C.
[3] = orally administered
[4] = rabbits; composition in polyethylene glycol-300 with and without bile salt

For `COc1ccc2[nH]cc(CCNC(C)=O)c2c1` [Melatonin, N-[2-(5-Methoxy-1H-indol-3-yl)ethyl] acetamide], the “solubility in organic solvents” value [1] is given as “soluble”, the “solubility in propylene glycol/water” value ([2]; 60% v/v propylene glycol) is given as “about 250 mM and 60 mg/ml” and the “solubility in propylene glycol/water” value ([2]; until reaching 40% v/v propylene glycol) is given as “up to 50 mM and ~ 12 mg/ml”. The “pH dependence of solubility in water” value ([2]; water) was “pH-independent solubility”, the “Plasma T½” value [3] was ~ 50 minutes and the oral absorption [3] was “almost completely absorbed”. For the same molecule, the oral bioavailability [3] was ~ 15% and the “bioavailability via intranasal route” value [4] was “increased substantially”.
